Laboratory results as given in patent US9630894B2, “Energy efficient method and apparatus for the extraction of biomolecules from dilute aqueous solution” (DYNASEP INC., priority 2012, dated 2017).
“Also recorded” adds a separate entry of the source.

What was measured:
[1] = tested on: fermentation cultures; experiment: DME toxicity study: solvent production / metabolite analysis by HPLC; assay type: cell-based
Procedure: (§1) Toxicity studies were performed to determine the effects of DME on fermentation cultures. Cell growth, viability and solvent production were measured to determine what effect DME has on fermentation cultures. Cell growth was monitored by absorption measurements taken at 600 nm (A600). Viability was measured by counting the colony forming units (CFU) after 24 hours. Solvent production was quantified by HPLC.
(§2) The first round of testing was performed using media that had been sparged with DME gas at 23° C. The amount of DME absorbed into the media was measured by weight gain after sparging. […] Two control cultures were also used for direct comparison of cultures with and without the presence of DME.
(§3) A second round of testing was performed at lower DME concentrations. The concentration of DME varied from 0.7 wt. % to 2.9 wt. %. Cell densities were measured between 3 and 64 hours after inoculation. […] Based on the solvent measurements in Table 8 and Table 9 solvent production was also unaffected by DME at 0.7 wt. %. […] This is apparent after examination of the cell density and solvent production for samples 1-5, 2-1, 2-4 and 2-5 in comparison to the control samples 1-B and 2-B.

[2] = tested on: fermentation cultures; experiment: DME toxicity study: cell growth by absorption at 600 nm (A600); assay type: cell-based
Procedure: as §1, §2
as §3, with “concentrations.” for “concentrations. The concentration of DME varied from 0.7 wt. % to 2.9 wt. %. Cell densities were measured between 3 and 64 hours after inoculation.”

[3] = DME saturation concentration in fermentation broth; assay type: physicochemical; conditions: fermentation conditions of 38° C.
[4] = culture 2-5, DME 27.9 g/L, 196 hours after inoculation

For `COC` [DME, dimethyl ether], the Butanol concentration [1, 4] was 7.2 mM, the Butyrate concentration [1, 4] was 94.5 mM and the Ethanol concentration [1, 4] was 0.0 mM. For the same compound, the Glucose concentration [1, 4] was 396.9 mM, the “effect on solvent production” value ([1]; cultures containing DME, 3 to 4 wt. %) was “greatly reduced” and the “effect on growth and solvent production” value ([2]; DME above 2.5 wt. % (2.5 to 3 wt. %)) was “substantial decrease; also recorded: more substantially inhibited; also recorded: severely inhibit”. The “effect on growth and solvent production” value ([2]; DME approximately 1.6 wt. %) was “some inhibition; also recorded: partially inhibit”, the “effect on cell growth and solvent production” value ([2]; DME below 0.7 wt. %) was “did not appear to inhibit growth; also recorded: do not have a noticeable effect; also recorded: have no observable effect; also recorded: no noticeable effect” and the A600 ([2]; culture 1-1, […] DME, 4 hours) was 0.184. For the same compound, the A600 ([2]; culture 1-1, […] DME, 7 hours) was 0.241, the A600 ([2]; culture 1-1, […] DME, 28 hours) was 0.137 and the A600 ([2]; culture 1-1, […] DME, 196 hours) was 0.075. The A600 ([2]; culture 1-2, 3.48% DME, 4 hours) was 0.205, the A600 ([2]; culture 1-2, 3.48% DME, 7 hours) was 0.194 and the A600 ([2]; culture 1-2, 3.48% DME, 28 hours) was 0.175. For the same compound, the A600 ([2]; culture 1-2, 3.48% DME, 196 hours) was 0.39, the A600 values ([2]; culture 1-2, DME 18.1 g/L, 3 hours) was 0.523 and the A600 values ([2]; culture 1-2, DME 18.1 g/L, 24 hours) was 2.565. For the same compound, the A600 values ([2]; culture 1-2, DME 18.1 g/L, 40 hours) was 1.82, the A600 values ([2]; culture 1-2, DME 18.1 g/L, 64 hours) was 1.97 and the A600 values ([2]; culture 1-3, DME 19.4 g/L, 3 hours) was 0.463. The A600 values ([2]; culture 1-3, DME 19.4 g/L, 24 hours) was 2.695, the A600 values ([2]; culture 1-3, DME 19.4 g/L, 40 hours) was 2.16 and the A600 values ([2]; culture 1-3, DME 19.4 g/L, 64 hours) was 2.15. It also gave an A600 ([2]; culture 1-3, […] DME, 4 hours) of 0.340, an A600 ([2]; culture 1-3, […] DME, 7 hours) of 0.690 and an A600 ([2]; culture 1-3, […] DME, 22 hours) of 1.745. For the same compound, the A600 ([2]; culture 1-3, […] DME, 28 hours) was 1.69, the A600 ([2]; culture 1-3, […] DME, 196 hours) was 1.08 and the A600 values ([2]; culture 1-4*, DME 43.8 g/L, 3 hours) was 0.807. It also gave an A600 values ([2]; culture 1-4*, DME 43.8 g/L, 24 hours) of 3.005, an A600 values ([2]; culture 1-4*, DME 43.8 g/L, 40 hours) of 1.95 and an A600 values ([2]; culture 1-4*, DME 43.8 g/L, 64 hours) of 2.14. For the same compound, the A600 values ([2]; culture 1-5, DME 25.8 g/L, 3 hours) was 0.543, the A600 values ([2]; culture 1-5, DME 25.8 g/L, 24 hours) was 1.415 and the A600 values ([2]; culture 1-5, DME 25.8 g/L, 40 hours) was 1.28. For the same compound, the A600 values ([2]; culture 1-5, DME 25.8 g/L, 64 hours) was 1.26, the A600 values ([2]; culture 2-1, DME 26.0 g/L, 3 hours) was 0.505 and the A600 values ([2]; culture 2-1, DME 26.0 g/L, 24 hours) was 1.390. The A600 values ([2]; culture 2-1, DME 26.0 g/L, 40 hours) was 2.48, the A600 values ([2]; culture 2-1, DME 26.0 g/L, 64 hours) was 2.24 and the A600 ([2]; culture 2-1, weight % DME printed as ?, 4 hours) was 0.140. For the same compound, the A600 ([2]; culture 2-1, weight % DME printed as ?, 7 hours) was 0.157, the A600 ([2]; culture 2-1, weight % DME printed as ?, 28 hours) was 0.072 and the A600 ([2]; culture 2-1, weight % DME printed as ?, 196 hours) was 0.05. The A600 ([2]; culture 2-2, 3.92% DME, 4 hours) was 0.173, the A600 ([2]; culture 2-2, 3.92% DME, 7 hours) was 0.178 and the A600 ([2]; culture 2-2, 3.92% DME, 28 hours) was 0.127. It also gave an A600 ([2]; culture 2-2, 3.92% DME, 196 hours) of 0.32, an A600 values ([2]; culture 2-2, DME 6.8 g/L, 3 hours) of 0.776 and an A600 values ([2]; culture 2-2, DME 6.8 g/L, 24 hours) of 3.755. It also gave an A600 values ([2]; culture 2-2, DME 6.8 g/L, 40 hours) of 1.29, an A600 values ([2]; culture 2-2, DME 6.8 g/L, 64 hours) of 1.36 and an A600 ([2]; culture 2-3, 3.72% DME, 4 hours) of 0.230. The A600 ([2]; culture 2-3, 3.72% DME, 7 hours) was 0.159, the A600 ([2]; culture 2-3, 3.72% DME, 28 hours) was 0.077 and the A600 ([2]; culture 2-3, 3.72% DME, 196 hours) was 0.06. It also gave an A600 values ([2]; culture 2-3, DME 6.6 g/L, 3 hours) of 0.783, an A600 values ([2]; culture 2-3, DME 6.6 g/L, 24 hours) of 3.700 and an A600 values ([2]; culture 2-3, DME 6.6 g/L, 40 hours) of 2.65. The A600 values ([2]; culture 2-3, DME 6.6 g/L, 64 hours) was 2.63, the A600 values ([2]; culture 2-4, DME 29.1 g/L, 3 hours) was 0.590 and the A600 values ([2]; culture 2-4, DME 29.1 g/L, 24 hours) was 1.195. The A600 values ([2]; culture 2-4, DME 29.1 g/L, 40 hours) was 2.63, the A600 values ([2]; culture 2-4, DME 29.1 g/L, 64 hours) was 2.19 and the A600 values ([2]; culture 2-5, DME 27.9 g/L, 3 hours) was 0.885. It also gave an A600 values ([2]; culture 2-5, DME 27.9 g/L, 24 hours) of 1.735, an A600 values ([2]; culture 2-5, DME 27.9 g/L, 40 hours) of 1.18 and an A600 values ([2]; culture 2-5, DME 27.9 g/L, 64 hours) of 1.19. The “effect on cell growth” value ([2]; media containing 3 to 4 wt. % DME) was “substantial reduction in cell growth” and the “amount of DME in the broth (saturation)” value [3] was roughly 2.3 wt. %.
